Source: patent publication US5681723A, “Mutant interleukin 6 with improved biological activity over wild interleukin 6” (Instituto di Ricerche di Biologia Molecolare P. Angelett …, priority 1992, dated 1997)

Experiments:
soluble hIL6 receptor = assay: hIL-6R binding (affinity for the soluble hIL6 receptor); design: species or system human; conditions: mutant hIL6 produced in E. coli
Source text: Affinity for the soluble hIL6 receptor of mutant hIL6 produced in E. coli

[1] = system: murine hybridoma cell line 7TD1; assay: HGF (Hybridoma Growth Factor) assay, growth of hIL-6 dependent hybridoma 7TD1; format: cell-based; conditions: murine hybridoma 7TD1, HGF assay
Protocol: Mutant interleukin 6 according to the present invention has also been tested using the classical HGF (Hybridoma Growth Factor) assay for its ability to stimulate growth of the hIL-6 dependent murine hybridoma cell line 7TD1 (Van Snick, J., Cayphas, S., Vink, A., Uyttenhove, C., Coulie, P. G. and Simpson, R. J. (1986) Proc. Natl. Acad. Sci. USA, 83, 9679-9683). The assay was performed taking into account the indications of Fiorillo, M. T., Cabibbo, A., Iacopetti, P., Fattori, E. and Ciliberto, G. (1992) Eur. J. Immunol. 22, 2609-2615.

[2] = system: human hepatoma cell line Hep3B; assay: CRP-CAT transcription induction assay in transfected human hepatoma Hep3B cells; format: cell-based; conditions: ratio of amounts of wild type hIL-6 and mutant giving half maximal stimulation of CRP-CAT in Hep3B cells; wild type = 100%
Protocol: The biological activity of the mutant of interest was determined first of all on cells of human origin. The activity of hIL-6 on human cells was assayed for its ability to enhance transcription from acute phase gene promoters in cells of hepatic origin (Morrone, G., Ciliberto, G., Oliviero, S., Arcone, R., Dente, L., Content, J. and Cortese, R. (1988) J. Biol. Chem. 263, 12554-12558). […]
In particular, human Hep3B cells were transfected with 45-50/ ug of the plasmid -219 CRP-CAT containing the IL-6 responsive element of the CRP promoter gene. […] After 16-18 hours, precipitates were removed, cells were trypsinized, pooled, counted and plated in equal number (10^5 to 3×10^5) in 5 cm diameter petri dishes; 7-9 hours after plating, cells were induced for 36-40 hours with increasing amounts of mutant or wild-type hIL-6. […]
The assay was carried out in duplicate (in triplicate in case of wild type hIL-6) with serial dilutions of two to four independent preparations of mutant. The activity of the mutant, expressed as a percent of wild type hIL-6, was calculated as the ratio between the amount of wild type hIL-6 and the amount of the mutant under examination necessary to give half maximal stimulation.

S176R: mutant human interleukin 6 with arginine in position 176 in place of serine of wild interleukin 6 [Mutation S176R]
hIL-6R binding (% of wt hIL-6) (soluble hIL6 receptor): 320 ± 87 % of wt hIL-6
ability to stimulate growth of hIL-6 dependent 7TD1 cells, with respect to the wild type [1]: significant increase in biological activity
Biological activity (% of wt hIL-6) [2]: 370±90 % of wt hIL-6
